We go through 30 compounds from US8278452B2, “Heterocyclic compounds and compositions as c-kit and PDGFR kinase inhibitors” (IRM LLC, priority 2008, dated 2012).

The assay has as its system Mo7e cells which endogenously express c-kit. In words: Mo7e assay: inhibition of SCF dependent proliferation (MTT). The assay is classed as cell-based. The settings on record: Table 1; SCF stimulated Mo7e cells, 48 hours, MTT. On the procedure: The compounds described herein are tested for inhibition of SCF dependent proliferation using Mo7e cells which endogenously express c-kit in a 96 well format. Two-fold serially diluted test compounds (Cmax=10 μM) are evaluated for their antiproliferative activity of Mo7e cells stimulated with human recombinant SCF. After 48 hours of incubation at 37° C., cell viability is measured by using a MTT colorimetric assay from Promega. IC50 values for compounds of the invention are quoted in table 1, supra.
By IC50 is commonly meant the point on the concentration scale where inhibition reaches its midpoint. Consider `CCC(C)c1nc(Nc2ccc(C)c(-c3cc4cnc(C)cc4n(C)c3=O)c2)no1` (stereo in doubt) [Compound A27, 3-[5-({5-[(2S)-butan-2-yl]-1,2,4-oxadiazol-3-yl}amino)-2-methylphenyl]-1,7-dimethyl-1,2-dihydro-1,6-naphthyridin-2-one], for which the IC50 came out at 54 nM.

`Cc1cc2c(cn1)cc(-c1cc(Nc3noc(C(O)C(C)C)n3)ccc1C)c(=O)n2C` (stereo in doubt) [Compound A92, (R)-3-(5-(5-(1-hydroxy-2-methylpropyl)-1,2,4-oxadiazol-3-ylamino)-2-methylphenyl)-1,7-dimethyl-1,6-naphthyridin-2(1H)-one] gave an IC50 of 104 nM.

For `Cc1cc2c(cn1)cc(-c1cc(Nc3noc(C(O)C(C)C)n3)ccc1C)c(=O)n2C` (stereo in doubt) [Compound A93, 3-[5-({5-[(1S)-1-hydroxy-2-methylpropyl]-1,2,4-oxadiazol-3-yl}amino)-2-methylphenyl]-1,7-dimethyl-1,2-dihydro-1,6-naphthyridin-2-one], the IC50 is 283 nM.

The compound `Cc1cc2c(cn1)cc(-c1cc(Nc3noc(-c4ccc(Cl)nc4)n3)ccc1C)c(=O)n2C` [Compound A1, 3-(5-{[5-(6-chloropyridin-3-yl)-1,2,4-oxadiazol-3-yl]amino}-2-methylphenyl)-1,7-dimethyl-1,2-dihydro-1,6-naphthyridin-2-one] yielded an IC50 of 100 nM. Compared with the last compound, the IC50 is about 2.8-fold lower.

For `Cc1cc2c(cn1)cc(-c1cc(Nc3noc(-c4cc(C)oc4C)n3)ccc1C)c(=O)n2C` [Compound A2, 3-(5-{[5-(2,5-dimethylfuran-3-yl)-1,2,4-oxadiazol-3-yl]amino}-2-methylphenyl)-1,7-dimethyl-1,2-dihydro-1,6-naphthyridin-2-one], the IC50 was 126 nM.

`Cc1cc2c(cn1)cc(-c1cc(Nc3noc(-c4ccc(C(F)(F)F)nc4)n3)ccc1C)c(=O)n2C` [Compound A4, 1,7-dimethyl-3-[2-methyl-5-({5-[6-(trifluoromethyl)pyridin-3-yl]-1,2,4-oxadiazol-3-yl}amino)phenyl]-1,2-dihydro-1,6-naphthyridin-2-one] had a 50% inhibitory concentration (IC50) of 472 nM.

In turn, `CCc1nc(Nc2ccc(C)c(-c3cc4cnc(C)cc4n(C)c3=O)c2)no1` [Compound A5, 3-(5-(5-ethyl-1,2,4-oxadiazol-3-ylamino)-2-methylphenyl)-1,7-dimethyl-1,6-naphthyridin-2(1H)-one] showed an IC50 of 49 nM.

Consider `Cc1cc2c(cn1)cc(-c1cc(Nc3noc(C(C)C)n3)ccc1C)c(=O)n2C` [Compound A6, 3-(5-(5-isopropyl-1,2,4-oxadiazol-3-ylamino)-2-methylphenyl)-1,7-dimethyl-1,6-naphthyridin-2(1H)-one], for which half-maximal inhibition (IC50) was put at 34 nM.

The compound `Cc1cc2c(cn1)cc(-c1cc(Nc3noc(-c4ccccc4)n3)ccc1C)c(=O)n2C` [Compound A7, 1,7-dimethyl-3-(2-methyl-5-(5-phenyl-1,2,4-oxadiazol-3-ylamino)phenyl)-1,6-naphthyridin-2(1H)-one] came in with a concentration for half-maximal inhibition (IC50) of 76 nM.

In the case of `Cc1cc2c(cn1)cc(-c1cc(Nc3noc(-c4ccccc4Cl)n3)ccc1C)c(=O)n2C` [Compound A8, 3-(5-{[5-(2-chlorophenyl)-1,2,4-oxadiazol-3-yl]amino}-2-methylphenyl)-1,7-dimethyl-1,2-dihydro-1,6-naphthyridin-2-one], inhibition was half-maximal at 158 nM (IC50).

Take `Cc1cc2c(cn1)cc(-c1cc(Nc3noc(-c4nccs4)n3)ccc1C)c(=O)n2C` [Compound A9, 1,7-dimethyl-3-(2-methyl-5-(5-(thiazol-2-yl)-1,2,4-oxadiazol-3-ylamino)phenyl)-1,6-naphthyridin-2(1H)-one]: the concentration for half-maximal inhibition (IC50) was found to be 204 nM. This IC50 and that of the compound before are within 1.5-fold of each other.

In turn, `Cc1cc2c(cn1)cc(-c1cc(Nc3noc(-c4cccnc4)n3)ccc1C)c(=O)n2C` [Compound A10, 1,7-dimethyl-3-(2-methyl-5-{[5-(pyridin-3-yl)-1,2,4-oxadiazol-3-yl]amino}phenyl)-1,2-dihydro-1,6-naphthyridin-2-one] had a concentration for half-maximal inhibition (IC50) of 145 nM. The IC50 values of the last two compounds are within 1.5-fold of each other.

For `Cc1cc2c(cn1)cc(-c1cc(Nc3noc(C4CCC4)n3)ccc1C)c(=O)n2C` [Compound A11, 3-{5-[(5-cyclobutyl-1,2,4-oxadiazol-3-yl)amino]-2-methylphenyl}-1,7-dimethyl-1,2-dihydro-1,6-naphthyridin-2-one], it took 12 nM to reach half-maximal inhibition (IC50). This IC50 lies about 12-fold lower than the previous one.

Compound `Cc1cc2c(cn1)cc(-c1cc(Nc3noc(-c4ccc(Cl)cc4)n3)ccc1C)c(=O)n2C` [Compound A12, 3-(5-{[5-(4-chlorophenyl)-1,2,4-oxadiazol-3-yl]amino}-2-methylphenyl)-1,7-dimethyl-1,2-dihydro-1,6-naphthyridin-2-one] yielded a 50% inhibitory concentration (IC50) of 13 nM.

`Cc1ccc(-c2nc(Nc3ccc(C)c(-c4cc5cnc(C)cc5n(C)c4=O)c3)no2)cc1` [Compound A13, 1,7-dimethyl-3-(2-methyl-5-{[5-(4-methylphenyl)-1,2,4-oxadiazol-3-yl]amino}phenyl)-1,2-dihydro-1,6-naphthyridin-2-one] registered an IC50 of 13 nM. This lies in the double-digit nanomolar range.

For `Cc1cc2c(cn1)cc(-c1cc(Nc3noc(C4CCCC4)n3)ccc1C)c(=O)n2C` [Compound A15, 3-{5-[(5-cyclopentyl-1,2,4-oxadiazol-3-yl)amino]-2-methylphenyl}-1,7-dimethyl-1,2-dihydro-1,6-naphthyridin-2-one], the 50% inhibitory concentration (IC50) worked out at 28 nM.

`Cc1cc2c(cn1)cc(-c1cc(Nc3noc(-c4ccccc4C)n3)ccc1C)c(=O)n2C` [Compound A16, 1,7-dimethyl-3-(2-methyl-5-{[5-(2-methylphenyl)-1,2,4-oxadiazol-3-yl]amino}phenyl)-1,2-dihydro-1,6-naphthyridin-2-one] yielded an IC50 of 114 nM.

As for `Cc1cccc(-c2nc(Nc3ccc(C)c(-c4cc5cnc(C)cc5n(C)c4=O)c3)no2)c1` [Compound A17, 1,7-dimethyl-3-(2-methyl-5-{[5-(3-methylphenyl)-1,2,4-oxadiazol-3-yl]amino}phenyl)-1,2-dihydro-1,6-naphthyridin-2-one], 241 nM corresponded to half-maximal inhibition (IC50).

Turning to `Cc1cc2c(cn1)cc(-c1cc(Nc3noc(C4CCCCC4)n3)ccc1C)c(=O)n2C` [Compound A18, 3-{5-[(5-cyclohexyl-1,2,4-oxadiazol-3-yl)amino]-2-methylphenyl}-1,7-dimethyl-1,2-dihydro-1,6-naphthyridin-2-one], the 50% inhibitory concentration (IC50) stood at 179 nM. The IC50 values of the last two compounds are within 1.5-fold of each other.

`Cc1cc2c(cn1)cc(-c1cc(Nc3noc(CC(C)(C)C)n3)ccc1C)c(=O)n2C` [Compound A19, 3-(5-{[5-(2,2-dimethylpropyl)-1,2,4-oxadiazol-3-yl]amino}-2-methylphenyl)-1,7-dimethyl-1,2-dihydro-1,6-naphthyridin-2-one] registered an IC50 of 216 nM.

On to `Cc1cc2c(cn1)cc(-c1cc(Nc3noc(-c4cccc(Cl)c4)n3)ccc1C)c(=O)n2C` [Compound A20, 3-(5-{[5-(3-chlorophenyl)-1,2,4-oxadiazol-3-yl]amino}-2-methylphenyl)-1,7-dimethyl-1,2-dihydro-1,6-naphthyridin-2-one], for which the IC50 amounted to 330 nM.

`Cc1cc2c(cn1)cc(-c1cc(Nc3noc(-c4cccn4C)n3)ccc1C)c(=O)n2C` [Compound A21, 1,7-dimethyl-3-(2-methyl-5-{[5-(1-methyl-1H-pyrrol-2-yl)-1,2,4-oxadiazol-3-yl]amino}phenyl)-1,2-dihydro-1,6-naphthyridin-2-one] had an IC50 of 129 nM. This IC50 is about 2.6-fold lower than that of the compound before.

As for `Cc1cc2c(cn1)cc(-c1cc(Nc3noc(-c4nccn4C)n3)ccc1C)c(=O)n2C` [Compound A22, 1,7-dimethyl-3-(2-methyl-5-{[5-(1-methyl-1H-imidazol-2-yl)-1,2,4-oxadiazol-3-yl]amino}phenyl)-1,2-dihydro-1,6-naphthyridin-2-one], 360 nM corresponded to half-maximal inhibition (IC50).

As to `Cc1cc2c(cn1)cc(-c1cc(Nc3noc(C4CCCN4C)n3)ccc1C)c(=O)n2C` (stereo not drawn) [Compound A23, 1,7-dimethyl-3-(2-methyl-5-{[5-(1-methylpyrrolidin-2-yl)-1,2,4-oxadiazol-3-yl]amino}phenyl)-1,2-dihydro-1,6-naphthyridin-2-one], half-maximal inhibition (IC50) required 208 nM. Compared with the last compound, the IC50 is about 1.7-fold lower.

In the case of `Cc1cc2c(cn1)cc(-c1cc(Nc3noc(-c4ccc(F)cc4)n3)ccc1C)c(=O)n2C` [Compound A24, 3-(5-{[5-(4-fluorophenyl)-1,2,4-oxadiazol-3-yl]amino}-2-methylphenyl)-1,7-dimethyl-1,2-dihydro-1,6-naphthyridin-2-one], half-maximal inhibition (IC50) was put at 36 nM.

`Cc1cc2c(cn1)cc(-c1cc(Nc3noc(-c4ccc(F)cn4)n3)ccc1C)c(=O)n2C` [Compound A25, 3-(5-{[5-(5-fluoropyridin-2-yl)-1,2,4-oxadiazol-3-yl]amino}-2-methylphenyl)-1,7-dimethyl-1,2-dihydro-1,6-naphthyridin-2-one] gave an IC50 of 82 nM.

`Cc1cc2c(cn1)cc(-c1cc(Nc3noc(-c4ccc(Cl)cn4)n3)ccc1C)c(=O)n2C` [Compound A26, 3-(5-{[5-(5-chloropyridin-2-yl)-1,2,4-oxadiazol-3-yl]amino}-2-methylphenyl)-1,7-dimethyl-1,2-dihydro-1,6-naphthyridin-2-one] gave a half-maximal inhibitory concentration (IC50) of 27 nM.

`CCCc1nc(Nc2ccc(C)c(-c3cc4cnc(C)cc4n(C)c3=O)c2)no1` [Compound A28, 1,7-dimethyl-3-{2-methyl-5-[(5-propyl-1,2,4-oxadiazol-3-yl)amino]phenyl}-1,2-dihydro-1,6-naphthyridin-2-one] yielded a 50% inhibitory concentration (IC50) of 50 nM.

In the case of `CCC(C)c1nc(Nc2ccc(C)c(-c3cc4cnc(C)cc4n(C)c3=O)c2)no1` (stereo not drawn) [Compound A29, 3-(5-{[5-(butan-2-yl)-1,2,4-oxadiazol-3-yl]amino}-2-methylphenyl)-1,7-dimethyl-1,2-dihydro-1,6-naphthyridin-2-one], 58 nM corresponded to half-maximal inhibition (IC50). This IC50 and that of the compound before are within 1.5-fold of each other.

As for `Cc1cc2c(cn1)cc(-c1cc(Nc3noc(C(C)(C)C)n3)ccc1C)c(=O)n2C` [Compound A30, 3-{5-[(5-tert-butyl-1,2,4-oxadiazol-3-yl)amino]-2-methylphenyl}-1,7-dimethyl-1,2-dihydro-1,6-naphthyridin-2-one], the IC50 was 245 nM.
